In patent EP0895988B1, “Arylsulfonylamino hydroxamic acid derivatives” (Pfizer Products Inc., priority 1997, dated 1999):
Values joined by “and” are separate entries in the source; they are usually repeats but may differ in a detail not shown here. Identical values can stand only once.

Columns and labels:
Human recombinant MMP-13 = Human recombinant MMP-13 (Homo sapiens, UniProt P45452); assay: Inhibition of MMP-13; assay type: biochemical; conditions: fluorogenic substrate Dnp-Pro-Cha-Gly-Cys(Me)-His-Ala-Lys(NMA)-NH2; repeated determinations
Experimental: Human recombinant MMP-13 is activated with 2mM APMA (p-aminophenyl mercuric acetate) for 1.5 hours, at 37°C and is diluted to […] in assay buffer (50 mM Tris, pH 7.5, 200 mM sodium chloride, 5mM calcium chloride, […], 0.02% brij). Twenty-five microliters of diluted enzyme is added per well of a 96 well microfluor plate. The enzyme is then diluted in a 1:4 ratio in the assay by the addition of inhibitor and substrate to give a final concentration in the assay of […].
10 mM stock solutions of inhibitors are made up in dimethyl sulfoxide and then diluted in assay buffer as per the inhibitor dilution scheme for inhibition of human collagenase (MMP-1): Twenty-five microliters of each concentration is added in triplicate to the microfluor plate. The final concentrations in the assay are 30 mM, 3mM, 0.3 mM, and 0.03 mM.
Substrate (Dnp-Pro-Cha-Gly-Cys(Me)-His-Ala-Lys(NMA)-NH2) is prepared as for inhibition of human collagenase (MMP-1) and […] is added to each well to give a final assay concentration of […]. Fluorescence readings (360 nm excitation; 450 emission) are taken at time 0 and every 5 minutes for 1 hour.
Positive controls consist of enzyme and substrate with no inhibitor and blanks consist of substrate only.
IC50's are determined as per inhibition of human collagenase (MMP-1). If IC50's are reported to be less than […], inhibitors are then assayed at final concentrations of 0.3 mM, 0.03 mM, 0.003 mM and 0.0003 mM.

[1] = molecular target: T1, Human recombinant collagenase (MMP-1) (Homo sapiens, UniProt P03956); assay: Inhibition of Human Collagenase (MMP-1); assay type: biochemical; conditions: fluorogenic substrate DNP-Pro-Cha-Gly-Cys(Me)-His-Ala-Lys(NMA)-NH2; room temperature; repeated determinations
T1 sequence (P03956 100-469): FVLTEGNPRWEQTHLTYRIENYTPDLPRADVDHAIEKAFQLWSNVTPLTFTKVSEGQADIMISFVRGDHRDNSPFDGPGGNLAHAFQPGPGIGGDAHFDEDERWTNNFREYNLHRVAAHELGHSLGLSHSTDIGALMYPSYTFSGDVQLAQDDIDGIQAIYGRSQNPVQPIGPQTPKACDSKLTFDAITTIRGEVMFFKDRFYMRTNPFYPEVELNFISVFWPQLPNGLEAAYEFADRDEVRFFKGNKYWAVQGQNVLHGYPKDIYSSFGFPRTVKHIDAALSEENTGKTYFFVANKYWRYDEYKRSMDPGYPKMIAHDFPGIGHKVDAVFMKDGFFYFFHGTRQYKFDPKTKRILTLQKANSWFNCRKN
Experimental: Human recombinant collagenase is activated with trypsin using the following ratio: […] of collagenase. The trypsin and collagenase are incubated at room temperature for 10 minutes then a five fold excess (50 mg/10 mg trypsin) of soybean trypsin inhibitor is added.
10 mM stock solutions of inhibitors are made up in dimethyl sulfoxide and then diluted using the following Scheme: 10 mM → 120 µm → 12 µM → 1.2 µM → 0.12 µM [formula]
Twenty-five microliters of each concentration is then added in triplicate to appropriate wells of a 96 well microfluor plate. The final concentration of inhibitor will be a 1:4 dilution after addition of enzyme and substrate. Positive controls (enzyme, no inhibitor) are set up in wells D1-D6 and blanks (no enzyme, no inhibitors) are set in wells D7-D12.
Collagenase is diluted to 400 ng/ml and […] is then added to appropriate wells of the microfluor plate. Final concentration of collagenase in the assay is 100 ng/ml.
Substrate (DNP-Pro-Cha-Gly-Cys(Me)-His-Ala-Lys(NMA)-NH2) is made as a 5 mM stock in dimethyl sulfoxide and then diluted to […] in assay buffer. The assay is initiated by the addition of […] substrate per well of the microfluor plate to give a final concentration of […].
Fluorescence readings (360 nm excitation, 460 nm emission) were taken at time 0 and then at 20 minute intervals. The assay is conducted at room temperature with a typical assay time of 3 hours.
Fluorescence vs time is then plotted for both the blank and collagenase containing samples (data from triplicate determinations is averaged). […] The zero time is used as a blank for each compound at each concentration and these values are subtracted from the 120 minute data. Data is plotted as inhibitor concentration vs % control (inhibitor fluorescence divided by fluorescence of collagenase alone x 100). IC50's are determined from the concentration of inhibitor that gives a signal that is 50% of the control.
If IC50's are reported to be <0.03 mM then the inhibitors are assayed at concentrations of 0.3 mM, 0.03 mM, […].

Compound | IC50 (Human recombinant MMP-13) | IC50 [1]
COC(=O)CCN(C1(C(=O)NO)CCCC1)S(=O)(=O)c1ccc(-c2ccc(F)cc2)cc1 [Example 1, 3-[(4'-FLUOROBIPHENYL-4-SULFONYL)-(1-HYDROXYCARBAMOYLCYCLO-PENTYL)AMINO]PROPIONIC ACID METHYL ESTER] | 10 nM and 12 nM | 80 nM and 145 nM
O=C(O)CCN(C1(C(=O)NO)CCCC1)S(=O)(=O)c1ccc(-c2ccc(F)cc2)cc1 [Example 2, 3-[(4'-FLUOROBIPHENYL-4-SULFONYL)-(1-HYDROXYCARBAMOYLCYCLO-PENTYL)AMINO]PROPIONIC ACID] | 1.7 nM and 3.5 nM and 2 nM | 195 nM and 300 nM and 200 nM
CCOC(=O)CCN(C(C)(C)C(=O)NO)S(=O)(=O)c1ccc(-c2ccc(F)cc2)cc1 [Example 3, 3-{(4'-FLUOROBIPHENYL-4-SULFONYL)-(1-HYDROXYCARBAMOYL-1-METHYL-ETHYL)AMINO]-PROPIONIC ACID ETHYL ESTER] | 20 nM and 17 nM | 4000 nM and 1300 nM
CC(C)(C(=O)NO)N(CCC(=O)O)S(=O)(=O)c1ccc(-c2ccc(F)cc2)cc1 [Example 4, 3-[(4'-FLUOROBIPHENYL-4-SULFONYL)-(1-HYDROXYCARBAMOYL-1-METHYL-ETHYL)AMINO]PROPIONIC ACID] | 52 nM | 800 nM
